According to the supplement of paper PMC10307832:

Columns and labels:
Experiment in all cases: relative viability (nuclei count vs DMSO), 5 days (fraction); higher = more cells survive
Midostaurin + Navitoclax = compound: CO[C@@H]1[C@H](N(C)C(=O)c2ccccc2)C[C@H]2O[C@]1(C)n1c3ccccc3c3c4c(c5c6ccccc6n2c5c31)C(=O)NC4 [Midostaurin] + CC1(C)CCC(c2ccc(Cl)cc2)=C(CN2CCN(c3ccc(C(=O)NS(=O)(=O)c4ccc(N[C@H](CCN5CCOCC5)CSc5ccccc5)c(S(=O)(=O)C(F)(F)F)c4)cc3)CC2)C1 [Navitoclax] (partner 0.5 µM)
Summary of the method: (§1)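 Lung cancer cell lines in 1536-well plates were dosed by pin tool the day after seeding, either with one drug alone or with a fixed anchor-drug dose plus five library-drug doses (not always all listed) in √10 steps. After 5 days, cells were fixed and their nuclei stained in one step (final 0.05% Triton X-100, 1% formaldehyde, 1 ug/ml Hoechst), then counted on 4× images. Relative viability is the nuclei count in treated wells divided by that in vehicle wells. Values are medians of duplicate plates.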

Midostaurin + Phenformin = compound: CO[C@@H]1[C@H](N(C)C(=O)c2ccccc2)C[C@H]2O[C@]1(C)n1c3ccccc3c3c4c(c5c6ccccc6n2c5c31)C(=O)NC4 [Midostaurin] + N=C(N)NC(=N)NCCc1ccccc1 [Phenformin] (partner 250 µM)
Summary of the method: as §1

Midostaurin + Vorinostat = compound: CO[C@@H]1[C@H](N(C)C(=O)c2ccccc2)C[C@H]2O[C@]1(C)n1c3ccccc3c3c4c(c5c6ccccc6n2c5c31)C(=O)NC4 [Midostaurin] + O=C(CCCCCCC(=O)Nc1ccccc1)NO [Vorinostat] (partner 1 µM)
Summary of the method: as §1

[1] = compound: COc1cc(-c2nn([C@H]3CC[C@H](N4CCN(C(C)=O)CC4)CC3)c3ncnc(N)c23)ccc1NC(=O)c1cc2ccccc2n1C + CCNC(=O)c1noc(-c2cc(C(C)C)c(O)cc2O)c1-c1ccc(CN2CCOCC2)cc1 [Luminespib] (partner 0.01 µM)
Summary of the method: as §1

[2] = compound: COc1cc(-c2nn([C@H]3CC[C@H](N4CCN(C(C)=O)CC4)CC3)c3ncnc(N)c23)ccc1NC(=O)c1cc2ccccc2n1C + Cc1nc(Nc2ncc(C(=O)Nc3c(C)cccc3Cl)s2)cc(N2CCN(CCO)CC2)n1 [Dasatinib] (partner 0.075 µM)
Summary of the method: as §1

Row | Cell Line | relative viability (Midostaurin + Navitoclax; first compound 0.01 µM) | relative viability (Midostaurin + Navitoclax; first compound 0.03162 µM) | relative viability (Midostaurin + Navitoclax; first compound 0.1 µM) | relative viability (Midostaurin + Navitoclax; first compound 0.3162 µM) | relative viability (Midostaurin + Phenformin; first compound 0.01 µM) | relative viability (Midostaurin + Phenformin; first compound 0.03162 µM) | relative viability (Midostaurin + Phenformin; first compound 0.1 µM) | relative viability (Midostaurin + Phenformin; first compound 0.3162 µM) | relative viability (Midostaurin + Vorinostat; first compound 0.01 µM) | relative viability (Midostaurin + Vorinostat; first compound 0.03162 µM) | relative viability (Midostaurin + Vorinostat; first compound 0.1 µM) | relative viability (Midostaurin + Vorinostat; first compound 0.3162 µM) | relative viability ([1]; first compound 0.0128 µM) | relative viability ([1]; first compound 0.04048 µM) | relative viability ([1]; first compound 0.128 µM) | relative viability ([1]; first compound 1.28 µM) | relative viability ([2]; first compound 0.0128 µM) | relative viability ([2]; first compound 0.04048 µM) | relative viability ([2]; first compound 0.128 µM) | relative viability ([2]; first compound 1.28 µM)
1 | NCI-H1975 | 1.13 | 1.07 | 1.04 | 0.818 | 0.425 | 0.418 | 0.39 | 0.397 | 0.695 | 0.706 | 0.574 | 0.416 | 0.249 | 0.186 | 0.159 | 0.123 | 0.345 | 0.294 | 0.357 | 0.24
2 | CAL-12T | 1.44 | 0.981 | 1.05 | 1.2 | 0.666 | 0.527 | 0.438 | 0.275 | 0.689 | 0.742 | 0.734 | 0.457 | 0.281 | 0.417 | 0.348 | 0.267 | 0.418 | 0.252 | 0.487 | 0.436
3 | NCI-H1623 |  |  |  |  | 0.588 | 0.626 | 0.56 | 0.634 |  |  |  |  | 0.473 | 0.514 | 0.451 | 0.433 | 0.526 | 0.497 | 0.557 | 0.572
4 | HCC-44 | 0.949 | 0.982 | 0.831 | 0.96 | 0.157 | 0.251 | 0.167 | 0.201 | 1.08 | 1.06 | 1.11 | 1.16 | 1.21 | 1.27 | 1.04 | 1.01 |  |  |  | 
5 | EKVX | 0.907 | 0.955 | 0.893 | 0.905 | 0.232 | 0.239 | 0.223 | 0.25 | 0.735 | 0.714 | 0.808 | 0.583 | 0.864 | 0.988 | 0.795 | 0.631 | 0.859 | 0.611 | 0.505 | 0.385
6 | NCI-H1651 | 1.01 | 1.07 | 0.897 | 0.898 | 0.377 | 0.4 | 0.327 | 0.299 | 0.566 | 0.571 | 0.566 | 0.593 | 0.797 | 0.859 | 0.942 | 0.743 | 0.426 | 0.568 | 0.432 | 0.458
7 | NCI-H1944 | 1.03 | 1.18 | 1.11 | 1.15 | 0.217 | 0.196 | 0.239 | 0.235 | 0.528 | 0.595 | 0.496 | 0.453 | 0.667 | 0.647 | 0.783 | 0.477 | 0.221 | 0.203 | 0.224 | 0.206
8 | NCI-H1703 | 1.21 | 0.974 | 0.75 | 0.312 |  |  |  |  |  |  |  |  |  |  |  |  |  |  |  | 
9 | Calu-6 | 0.69 | 0.757 | 0.709 | 0.697 |  |  |  |  |  |  |  |  |  |  |  |  |  |  |  | 
10 | EBC-1 | 0.49 | 0.453 | 0.429 | 0.312 |  |  |  |  |  |  |  |  |  |  |  |  |  |  |  | 
11 | SW 1573 | 0.957 | 1.01 | 0.971 | 1.22 | 0.379 | 0.462 | 0.41 | 0.308 | 0.717 | 1.09 | 0.732 | 1.02 | 0.225 | 0.229 | 0.231 | 0.42 | 0.496 | 0.743 | 0.627 | 0.612
12 | A-427 | 0.977 | 0.859 | 0.883 | 0.767 | 0.296 | 0.34 | 0.289 | 0.25 | 0.883 | 0.887 | 0.848 | 0.937 | 1.16 | 0.867 | 0.895 | 0.794 | 0.744 |  | 0.65 | 0.856
13 | NCI-H2347 | 0.771 | 0.832 | 0.902 | 0.889 | 0.254 | 0.384 | 0.337 | 0.248 | 0.575 | 0.511 | 0.602 | 0.419 | 0.619 |  | 0.576 | 0.34 | 0.262 |  | 0.333 | 0.308
14 | NCI-H1355 | 0.966 | 0.924 | 1.01 | 0.847 | 0.43 | 0.443 | 0.464 | 0.465 | 0.665 | 0.672 | 0.619 | 0.667 | 0.798 | 0.7 | 0.726 | 0.639 | 0.834 | 0.798 | 0.719 | 0.884
15 | NCI-H358 |  |  |  |  | 0.404 | 0.331 | 0.371 | 0.353 | 0.625 | 0.536 | 0.391 | 0.197 | 0.452 | 0.251 | 0.395 | 0.296 | 0.188 | 0.138 | 0.151 | 0.163
16 | PC-3 [JPC-3] | 0.752 | 0.777 | 0.791 | 0.851 | 0.497 | 0.474 | 0.491 | 0.517 | 0.776 | 0.788 | 0.68 | 1.07 | 0.681 | 0.838 | 0.712 | 0.711 | 0.985 | 0.881 | 0.922 | 1.03
17 | NCI-H2228 | 0.665 | 0.824 | 1.01 | 1.02 | 0.405 | 0.363 | 0.366 | 0.5 | 0.878 | 0.424 | 0.716 | 0.356 | 0.184 | 0.145 | 0.141 | 0.115 | 0.474 | 0.436 | 0.52 | 0.456
18 | HOP-62 | 0.928 | 0.981 | 0.957 | 1.04 | 0.586 | 0.66 | 0.69 | 0.646 | 0.545 | 0.607 | 0.676 | 0.5 | 0.972 | 0.823 | 1 | 0.879 | 0.704 | 0.514 | 0.632 | 0.765
